In patent publication US8278303B2, “Phosphine transition metal complex, process for producing same, and anticancer agent” (Nippon Chemical Industrial Co., Ltd., priority 2006, dated 2012):

System: Human acute myelocytic leukemia cells HL-60
Experiment: Inhibitory activity on tumor cells, viable cell count by modified Mosmann (MTT) method
Type: cell-based
Conditions: HL-60 cells, 50,000 cells/well, 24 hours culture with compound, then MTT 3 hours; average of at least triplicate; read-out: IC50 (fifty percent inhibitory concentration)
Method: The cells were washed with PBS.
Formazan crystals formed by the enzyme activity of mitochondria in the cells were dissolved in 0.04 mol/HCl/isopropyl alcohol.

## CP(c1nc2ccccc2nc1P(C)C(C)(C)C)C(C)(C)C.CP(c1nc2ccccc2nc1P(C)C(C)(C)C)C(C)(C)C.[Au+].[Cl-] (stereo not shown) [Example 1, bis(2,3-bis(t-butylmethylphosphino)quinoxaline)gold (I) chloride]
  IC50: 517 nM
